Experimental data: ChEMBL document CHEMBL4229327, “Chemical Approaches to Modulating Complement-Mediated Diseases” (J Med Chem, 2018)
pEC50, pIC50, pKi: −log10 of the molar value. Blank lines part the entries; values can stand above or below the compound they belong to. Peptide text beside a SMILES is read from it.

What was measured:
[1] = Inhibition of factor D in […]-activated cat serum assessed as decrease in human erythrocyte lysis; conditions: Felis catus
[2] = Inhibition of factor D in […]-activated dog serum assessed as decrease in human erythrocyte lysis; conditions: Canis lupus familiaris
[3] = target: T1, C3a anaphylatoxin chemotactic receptor (Homo sapiens, UniProt Q16581); assay: Displacement of 125I-C3a from human C3aR expressed in RBL-2H3 cells; format: cell-based
T1 sequence (Q16581 whole entry): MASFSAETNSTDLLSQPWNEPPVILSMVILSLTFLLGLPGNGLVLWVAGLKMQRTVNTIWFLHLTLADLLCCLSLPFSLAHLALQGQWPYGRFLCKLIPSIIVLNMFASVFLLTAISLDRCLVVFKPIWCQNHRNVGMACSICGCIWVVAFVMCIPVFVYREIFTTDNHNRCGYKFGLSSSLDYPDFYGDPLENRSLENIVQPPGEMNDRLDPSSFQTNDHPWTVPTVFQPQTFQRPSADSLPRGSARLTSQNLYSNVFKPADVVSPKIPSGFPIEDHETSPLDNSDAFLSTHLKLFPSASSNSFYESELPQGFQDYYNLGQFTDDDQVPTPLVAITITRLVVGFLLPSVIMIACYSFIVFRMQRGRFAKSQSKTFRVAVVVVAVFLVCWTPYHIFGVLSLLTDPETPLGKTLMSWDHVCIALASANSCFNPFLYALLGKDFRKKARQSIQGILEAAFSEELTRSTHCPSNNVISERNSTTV

[4] = target: T1, C3a anaphylatoxin chemotactic receptor; assay: Antagonist activity at human C3aR expressed in RBL-2H3 cells assessed as inhibition of C3a-induced intracellular calcium mobilization; format: functional, cell-based
[5] = Half life in Wistar rat at 10 mg/kg, po or 1 mg/kg, iv; format: ADME, organism-based; conditions: in vivo
[6] = Oral bioavailability in Wistar rat at 10 mg/kg; format: ADME, organism-based; conditions: in vivo
[7] = target: T2, Mannan-binding lectin serine protease 2 (Homo sapiens, UniProt O00187); assay: Inhibition of MASP2 (unknown origin)-induced lectin pathway by ELISA
[8] = target: T2, Mannan-binding lectin serine protease 2; assay: Inhibition of recombinant […] fragment of MASP-2 (unknown origin)
[9] = target: T1, C3a anaphylatoxin chemotactic receptor; assay: Agonist activity at C3aR in HMDM assessed as induction of Ca2+ release; format: functional
[10] = target: T1, C3a anaphylatoxin chemotactic receptor; assay: Antagonist activity at C3aR in HMDM assessed as inhibition of agonist-induced Ca2+ release; format: functional
[11] = target: T3, Complement factor D (Homo sapiens, UniProt P00746)
Description: Inhibition of factor D in human serum assessed as decrease in C3 deposition on PNH erythrocytes

[12] = target: Complement factor B (Homo sapiens, UniProt P00751); assay: Displacement of Cy5 from recombinant human biotin-labeled factor B expressed in drosophila cells after 2 hrs by TR-FRET assay; format: cell-based
[13] = target: T3, Complement factor D; assay: Displacement of Cy5 from recombinant human biotin labeled factor D expressed in Escherichia coli after 2 hrs by TR-FRET assay
[14] = target: T1, C3a anaphylatoxin chemotactic receptor; assay: Displacement of 125I-C3a from recombinant human C3aR expressed in HEK293 cell membranes after 3 hrs by scintillation proximity assay
[15] = target: Complement C3 (Homo sapiens, UniProt P01024); assay: Inhibition of C3 in human serum by ELISA
[16] = target: T4, C5a anaphylatoxin chemotactic receptor 1 (Homo sapiens, UniProt P21730); assay: Antagonist activity at recombinant human C5aR1 expressed in Sf9 insect cell membranes co-expressing G-alphai2,G-beta1 and G-gamma2 assessed as inhibition of recombinant human C5a-induced [35S]GTPgammaS binding after 60 mins by liquid scintillation spectrometry; format: functional
T4 sequence (P21730 whole entry): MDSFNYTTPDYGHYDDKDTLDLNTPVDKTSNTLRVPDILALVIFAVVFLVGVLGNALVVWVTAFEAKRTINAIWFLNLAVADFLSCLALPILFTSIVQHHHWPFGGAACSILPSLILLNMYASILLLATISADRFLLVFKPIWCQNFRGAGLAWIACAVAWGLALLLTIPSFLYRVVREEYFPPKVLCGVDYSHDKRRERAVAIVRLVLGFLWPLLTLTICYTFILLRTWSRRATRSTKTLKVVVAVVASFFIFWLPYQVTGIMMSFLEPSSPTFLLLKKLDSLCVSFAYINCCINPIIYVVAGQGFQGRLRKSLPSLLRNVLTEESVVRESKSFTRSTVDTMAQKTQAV

[17] = target: T5, Integrin alpha-M/beta-2 (Homo sapiens, UniProt P05107+P11215); assay: Antagonist activity at CR3 in carboxyfluorescein diacetate succiminidyl ester-labeled human PMN assessed as inhibition of TNF/PMA-stimulated adhesion of PMN to fibrinogen preincubated for 10 mins followed by TNF/PMA addition by fluorescence assay; format: protein-complex assay
[18] = target: T5, Integrin alpha-M/beta-2; assay: Inhibition of C3bi-AP binding to CR3 derived from human PMN; format: protein-complex assay
[19] = target: T6, Complement C2 (Homo sapiens, UniProt P06681); assay: Competitive/reversible inhibition of human C2 using Ac-SHLGLAR-pNA as substrate
T6 sequence (P06681 whole entry): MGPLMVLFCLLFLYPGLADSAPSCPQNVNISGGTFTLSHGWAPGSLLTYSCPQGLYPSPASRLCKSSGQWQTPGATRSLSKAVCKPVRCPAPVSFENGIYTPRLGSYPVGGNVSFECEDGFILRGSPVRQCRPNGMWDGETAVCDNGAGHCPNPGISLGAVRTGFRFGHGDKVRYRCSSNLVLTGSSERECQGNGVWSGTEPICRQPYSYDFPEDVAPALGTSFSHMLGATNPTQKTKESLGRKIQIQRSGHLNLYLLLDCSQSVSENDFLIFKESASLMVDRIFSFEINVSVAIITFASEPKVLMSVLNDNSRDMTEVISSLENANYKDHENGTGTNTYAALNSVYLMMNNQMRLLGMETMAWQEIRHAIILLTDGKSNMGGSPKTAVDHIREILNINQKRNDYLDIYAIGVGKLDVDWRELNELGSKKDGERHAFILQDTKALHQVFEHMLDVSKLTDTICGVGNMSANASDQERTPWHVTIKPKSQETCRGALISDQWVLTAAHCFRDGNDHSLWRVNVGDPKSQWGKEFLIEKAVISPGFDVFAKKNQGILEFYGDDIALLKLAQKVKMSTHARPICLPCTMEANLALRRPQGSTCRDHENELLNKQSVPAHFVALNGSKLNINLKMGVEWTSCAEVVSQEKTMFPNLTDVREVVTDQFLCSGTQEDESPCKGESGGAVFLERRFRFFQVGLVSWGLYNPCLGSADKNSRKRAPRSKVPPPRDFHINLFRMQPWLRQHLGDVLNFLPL

[20] = target: T6, Complement C2; assay: Inhibition of human C2-mediated C3 processing after 24 hrs by SDS-PAGE
[21] = target: T6, Complement C2; assay: Inhibition of C2-mediated MAC formation in human serum by ELISA
[22] = target: T2, Mannan-binding lectin serine protease 2; assay: Inhibition of MASP-2 (unknown origin) using Z-L-LysSBzl hydrochloride as substrate preincubated for 1 hr followed by substrate addition
[23] = target: T2, Mannan-binding lectin serine protease 2; assay: Inhibition of MASP-2-mediated C4 deposition in human serum after 1 hr by ELISA
[24] = target: T7, Mannan-binding lectin serine protease 1 (Homo sapiens, UniProt P48740); assay: Inhibition of MASP-1-mediated C3 deposition in human serum after 30 mins by ELISA
T7 sequence (P48740 whole entry): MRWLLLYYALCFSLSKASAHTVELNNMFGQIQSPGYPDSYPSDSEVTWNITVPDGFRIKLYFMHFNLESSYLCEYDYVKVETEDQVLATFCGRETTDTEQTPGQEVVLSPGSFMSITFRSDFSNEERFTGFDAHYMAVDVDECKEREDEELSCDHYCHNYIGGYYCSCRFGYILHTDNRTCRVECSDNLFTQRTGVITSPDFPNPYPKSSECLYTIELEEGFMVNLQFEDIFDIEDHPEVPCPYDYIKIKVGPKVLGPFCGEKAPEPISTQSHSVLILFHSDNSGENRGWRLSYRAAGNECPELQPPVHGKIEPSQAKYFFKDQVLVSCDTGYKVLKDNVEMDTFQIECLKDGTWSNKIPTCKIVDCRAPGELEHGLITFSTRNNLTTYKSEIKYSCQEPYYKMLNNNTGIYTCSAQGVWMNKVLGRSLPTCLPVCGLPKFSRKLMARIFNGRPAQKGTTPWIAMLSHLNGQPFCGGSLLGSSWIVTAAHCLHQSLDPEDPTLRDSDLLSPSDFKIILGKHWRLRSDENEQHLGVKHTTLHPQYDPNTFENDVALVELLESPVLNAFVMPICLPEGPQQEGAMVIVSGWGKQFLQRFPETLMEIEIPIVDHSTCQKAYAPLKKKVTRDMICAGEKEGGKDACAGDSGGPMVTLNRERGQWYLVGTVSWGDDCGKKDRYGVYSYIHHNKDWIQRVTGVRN

T5 sequence (P05107 23-769 limits assumed, other chains not shown): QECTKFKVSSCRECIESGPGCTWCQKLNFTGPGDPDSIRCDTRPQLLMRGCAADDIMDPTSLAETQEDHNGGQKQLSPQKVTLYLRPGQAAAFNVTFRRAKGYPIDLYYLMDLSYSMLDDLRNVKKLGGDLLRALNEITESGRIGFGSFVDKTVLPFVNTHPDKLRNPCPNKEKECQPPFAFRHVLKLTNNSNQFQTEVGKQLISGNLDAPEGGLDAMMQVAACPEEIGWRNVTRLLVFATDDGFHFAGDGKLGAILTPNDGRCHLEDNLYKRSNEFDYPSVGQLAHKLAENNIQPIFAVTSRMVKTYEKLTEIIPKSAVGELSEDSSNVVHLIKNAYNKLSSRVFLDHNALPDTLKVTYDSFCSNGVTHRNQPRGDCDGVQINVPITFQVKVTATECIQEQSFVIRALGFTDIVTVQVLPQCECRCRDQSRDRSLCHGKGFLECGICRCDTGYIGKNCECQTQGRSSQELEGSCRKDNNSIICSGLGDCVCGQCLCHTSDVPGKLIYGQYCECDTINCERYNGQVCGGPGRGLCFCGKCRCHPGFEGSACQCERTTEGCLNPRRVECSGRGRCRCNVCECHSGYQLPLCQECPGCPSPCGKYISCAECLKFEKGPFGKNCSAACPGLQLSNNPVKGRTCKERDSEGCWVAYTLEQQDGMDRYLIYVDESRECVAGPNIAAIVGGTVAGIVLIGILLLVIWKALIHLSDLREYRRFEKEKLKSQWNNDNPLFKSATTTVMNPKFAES
T2 sequence (O00187 16-444 limits assumed): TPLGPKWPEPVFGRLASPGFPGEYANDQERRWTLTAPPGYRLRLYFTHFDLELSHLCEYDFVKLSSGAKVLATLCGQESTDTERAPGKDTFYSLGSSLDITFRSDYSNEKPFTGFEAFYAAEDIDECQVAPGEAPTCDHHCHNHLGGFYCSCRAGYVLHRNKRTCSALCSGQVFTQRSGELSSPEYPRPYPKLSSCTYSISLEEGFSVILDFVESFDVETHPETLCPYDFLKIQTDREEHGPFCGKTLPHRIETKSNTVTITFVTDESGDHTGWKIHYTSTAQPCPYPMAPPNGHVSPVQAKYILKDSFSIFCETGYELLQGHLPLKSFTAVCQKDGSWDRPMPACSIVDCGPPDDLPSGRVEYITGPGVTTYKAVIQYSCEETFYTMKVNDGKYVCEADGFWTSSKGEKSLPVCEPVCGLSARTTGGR
T2 sequence (O00187 445-686 limits assumed): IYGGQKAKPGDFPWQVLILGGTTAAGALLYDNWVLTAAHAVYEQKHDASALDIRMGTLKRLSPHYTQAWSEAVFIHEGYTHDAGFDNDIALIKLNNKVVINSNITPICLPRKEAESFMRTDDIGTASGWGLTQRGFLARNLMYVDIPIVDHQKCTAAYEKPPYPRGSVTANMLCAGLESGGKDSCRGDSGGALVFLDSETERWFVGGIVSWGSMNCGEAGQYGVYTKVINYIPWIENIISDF
T3 sequence (P00746 whole entry): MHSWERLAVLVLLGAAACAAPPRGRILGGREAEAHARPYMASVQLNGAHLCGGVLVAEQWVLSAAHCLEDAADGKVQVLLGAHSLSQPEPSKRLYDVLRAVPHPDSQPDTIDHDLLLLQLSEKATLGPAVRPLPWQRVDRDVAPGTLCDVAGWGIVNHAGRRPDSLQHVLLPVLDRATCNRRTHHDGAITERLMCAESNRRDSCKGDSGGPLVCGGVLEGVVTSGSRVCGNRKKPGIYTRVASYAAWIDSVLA
Complement C3, sequence (P01024 23-667 limits assumed): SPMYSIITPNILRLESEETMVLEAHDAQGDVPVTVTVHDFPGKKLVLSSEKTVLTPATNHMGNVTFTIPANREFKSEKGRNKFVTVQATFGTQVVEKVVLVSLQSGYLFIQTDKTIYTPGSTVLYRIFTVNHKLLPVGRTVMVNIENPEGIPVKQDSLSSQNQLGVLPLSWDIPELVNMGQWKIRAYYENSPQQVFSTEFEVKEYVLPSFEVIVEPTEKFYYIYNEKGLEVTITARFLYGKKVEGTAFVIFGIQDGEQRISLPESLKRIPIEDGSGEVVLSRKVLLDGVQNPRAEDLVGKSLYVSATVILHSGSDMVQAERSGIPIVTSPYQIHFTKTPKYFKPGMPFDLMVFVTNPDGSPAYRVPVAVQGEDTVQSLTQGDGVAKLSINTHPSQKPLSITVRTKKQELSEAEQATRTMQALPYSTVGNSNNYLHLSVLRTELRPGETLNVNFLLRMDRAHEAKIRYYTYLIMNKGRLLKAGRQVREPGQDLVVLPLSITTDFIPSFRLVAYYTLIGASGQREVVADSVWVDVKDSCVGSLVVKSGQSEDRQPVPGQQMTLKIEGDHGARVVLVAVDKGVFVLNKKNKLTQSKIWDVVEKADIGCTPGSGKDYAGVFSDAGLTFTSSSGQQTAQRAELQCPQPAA
Complement C3, sequence (P01024 672-1663 limits assumed): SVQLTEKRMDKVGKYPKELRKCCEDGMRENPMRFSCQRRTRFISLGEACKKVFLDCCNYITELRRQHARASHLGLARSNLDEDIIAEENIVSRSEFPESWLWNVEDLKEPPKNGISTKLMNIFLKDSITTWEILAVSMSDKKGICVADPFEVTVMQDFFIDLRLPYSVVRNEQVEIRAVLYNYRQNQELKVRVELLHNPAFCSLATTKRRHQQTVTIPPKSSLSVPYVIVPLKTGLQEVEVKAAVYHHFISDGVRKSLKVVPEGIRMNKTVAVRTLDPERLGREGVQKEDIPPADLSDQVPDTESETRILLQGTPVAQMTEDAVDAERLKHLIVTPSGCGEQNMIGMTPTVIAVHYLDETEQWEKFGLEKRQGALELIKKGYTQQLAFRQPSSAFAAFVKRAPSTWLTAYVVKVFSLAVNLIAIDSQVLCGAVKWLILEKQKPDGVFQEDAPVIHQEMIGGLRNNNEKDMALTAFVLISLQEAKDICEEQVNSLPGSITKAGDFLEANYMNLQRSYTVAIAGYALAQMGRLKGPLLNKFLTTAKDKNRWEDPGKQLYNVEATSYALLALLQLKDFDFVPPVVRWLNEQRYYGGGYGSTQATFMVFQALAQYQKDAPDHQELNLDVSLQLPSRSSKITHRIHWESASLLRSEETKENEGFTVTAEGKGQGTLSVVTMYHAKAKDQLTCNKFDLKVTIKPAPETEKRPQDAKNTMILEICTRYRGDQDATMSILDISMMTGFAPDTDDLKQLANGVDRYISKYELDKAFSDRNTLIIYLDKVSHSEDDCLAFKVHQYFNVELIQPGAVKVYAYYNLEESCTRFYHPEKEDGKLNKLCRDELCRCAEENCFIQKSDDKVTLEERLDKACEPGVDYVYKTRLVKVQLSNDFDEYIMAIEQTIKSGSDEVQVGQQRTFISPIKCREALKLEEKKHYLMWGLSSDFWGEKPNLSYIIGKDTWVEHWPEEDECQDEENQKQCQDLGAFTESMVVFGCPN
Complement factor B, sequence (P00751 whole entry): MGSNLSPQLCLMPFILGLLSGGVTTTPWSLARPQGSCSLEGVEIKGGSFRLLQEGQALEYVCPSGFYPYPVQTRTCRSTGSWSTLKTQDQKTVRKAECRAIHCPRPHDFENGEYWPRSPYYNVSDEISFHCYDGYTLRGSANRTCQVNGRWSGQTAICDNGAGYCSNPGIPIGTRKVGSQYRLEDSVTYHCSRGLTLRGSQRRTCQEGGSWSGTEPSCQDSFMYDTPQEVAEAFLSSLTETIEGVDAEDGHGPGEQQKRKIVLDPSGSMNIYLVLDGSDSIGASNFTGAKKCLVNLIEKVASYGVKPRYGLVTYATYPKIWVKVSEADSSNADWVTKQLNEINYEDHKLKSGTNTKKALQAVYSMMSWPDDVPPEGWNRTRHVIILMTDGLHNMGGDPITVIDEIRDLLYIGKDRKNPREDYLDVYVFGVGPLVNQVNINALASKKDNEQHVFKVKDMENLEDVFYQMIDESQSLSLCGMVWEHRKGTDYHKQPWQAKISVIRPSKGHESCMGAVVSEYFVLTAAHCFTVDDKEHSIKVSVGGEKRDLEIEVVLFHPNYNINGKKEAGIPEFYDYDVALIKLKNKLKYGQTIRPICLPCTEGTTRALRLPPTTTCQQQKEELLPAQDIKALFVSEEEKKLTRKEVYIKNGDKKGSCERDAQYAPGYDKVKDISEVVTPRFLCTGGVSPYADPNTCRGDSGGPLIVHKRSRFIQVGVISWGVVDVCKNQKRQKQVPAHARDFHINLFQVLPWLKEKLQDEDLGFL

pIC50 [1]: 7.00
pIC50 [2]: 7.00
SMILES: CC(=O)Oc1ccc(Cc2ccc(OC(C)=O)c(C(=O)O)c2)cc1C(=O)O

SMILES: N=C(N)NCCC[C@H](NC(=O)COCC(c1ccccc1)c1ccccc1)C(=O)O
pIC50 [3]: 6.70
pIC50 [4]: 7.55

half-life [5]: 1 to 3 h
bioavailability [6]: 70%
SMILES: COc1ccc2c(c1)C(C(=O)N(Cc1ccc(N(C)C)cc1)c1ccc(C(C)C)cc1)CCC2 (stereo unspecified)

pIC50 [7]: 7.18
pKi [8]: 8.22
SMILES: CC(C)C[C@H](NC(=O)[C@H](CCCCN)NC(=O)[C@@H](NC(=O)[C@H](CS)NC(=O)[C@@H](NC(=O)[C@H](C)NC(=O)[C@H](CO)NC(=O)[C@H](CCCCN)NC(=O)CNC(=O)[C@H](CC(=O)O)NC(=O)[C@H](CO)NC(=O)CNC(=O)[C@H](CS)NC(=O)[C@H](CCCNC(=N)N)NC(=O)[C@H](CS)NC(=O)[C@@H](NC(=O)[C@H](CC(N)=O)NC(=O)[C@H](CS)NC(=O)[C@H](CCCCN)NC(=O)[C@H](CC(=O)O)NC(=O)[C@H](CCCCN)NC(=O)[C@H](Cc1ccccc1)NC(=O)[C@@H](NC(=O)[C@@H](NC(=O)CNC(=O)[C@@H]1CCCN1C(=O)[C@H](CCC(=O)O)NC(=O)[C@H](CS)NC(=O)[C@@H](NC(=O)[C@@H](NC(=O)[C@@H](N)CCC(=O)O)C(C)C)[C@@H](C)O)[C@@H](C)O)[C@@H](C)O)[C@@H](C)O)C(C)C)[C@@H](C)O)C(=O)N[C@@H](Cc1c[nH]c2ccccc12)C(=O)N[C@@H](CS)C(=O)N[C@@H](CC(N)=O)C(=O)N[C@@H](CCC(N)=O)C(=O)O (H-EVTCEPGTTFKDKCNTCRCGSDGKSAVCTKLWCNQ-OH)

SMILES: N=C(N)NCCC[C@H](Nc1nccc2[nH]c(C(c3ccccc3)c3ccccc3)nc12)C(=O)O
pEC50 [9]: 7.82

SMILES: N=C(N)NCCC[C@@H](C(=O)O)N1Cc2nc(C(c3ccccc3)c3ccccc3)sc2C1=O
pIC50 [10]: 6.49

IC90 [11]: 89 nM
SMILES: CC(=O)c1nn(CC(=O)N2C[C@H](F)C[C@H]2C(=O)Nc2cccc(Br)n2)c2ccc(-c3cnc(C)nc3)cc12

pIC50 [1]: 7.00
pIC50 [2]: 7.00
SMILES: CC(=O)Oc1ccc(-c2ccc(OC(C)=O)c(C(=O)O)c2)cc1C(=O)O

pIC50 [12]: 7.52
SMILES: COc1cc(C)c2[nH]ccc2c1C(C)(C)c1nc2cc(C#N)cnc2[nH]1

pIC50 [13]: 7.64
SMILES: Cn1cc(-c2cc(COc3ccccc3CC(=O)O)cc(-c3cccc(CC(N)=O)c3F)c2)cn1

SMILES: N=C(N)NCCC[C@H](NC(=O)c1cccn(Cc2ccccc2Br)c1=O)C(=O)O
pIC50 [14]: 7.30

pIC50 [15]: 7.21
SMILES: CC[C@H](C)[C@H](NC(C)=O)C(=O)N[C@H]1CSSC[C@@H](C(=O)N(C)[C@H](C(N)=O)[C@@H](C)CC)NC(=O)[C@H](CCCNC(=N)N)NC(=O)[C@H](Cc2c[nH]cn2)NC(=O)[C@H](C)NC(=O)CN(C)C(=O)[C@H](Cc2c[nH]c3ccccc23)NC(=O)[C@H](CC(=O)O)NC(=O)[C@H](CCC(N)=O)NC(=O)[C@H](Cc2cn(C)c3ccccc23)NC(=O)[C@H](C(C)C)NC1=O

half-life [5]: 1 to 3 h
SMILES: CCc1cccc(CC)c1-c1cc(OC(C)C)c2c(n1)CCCC2Nc1ccccc1CCO (stereo unspecified)

SMILES: C[C@@H](C(=O)N(Cc1ccccc1F)C1Cc2ccccc2C1)N1CCc2ccccc2[C@@H]1c1cccc2ccccc12
pKi [16]: 7.82

pIC50 [17]: 5.00 to 5.60
pIC50 [18]: 6.85
SMILES: CC[n+]1c(/C=C/C=C/N2CCCc3ccccc32)sc2ccc3ccccc3c21

half-life [5]: 20 h
bioavailability [6]: ≤ 2%
SMILES: CC(=O)N[C@@H](Cc1ccccc1)C(=O)N[C@H]1CCCNC(=O)[C@H](CCCNC(=N)N)NC(=O)[C@H](Cc2c[nH]c3ccccc23)NC(=O)[C@@H](CC2CCCCC2)NC(=O)[C@@H]2CCCN2C1=O

pIC50 [19]: 6.48
pIC50 [20]: 6.00 to 6.30
pIC50 [21]: 5.14
SMILES: CC(=O)N[C@@H](CCCNC(=N)N)C(=O)N[C@@H](CC(C)C)C(=O)N[C@@H](CC(C)C)C(=O)N[C@@H](CC(C)C)C(=O)N[C@@H](C)C(=O)N[C@H](C=O)CCCNC(=N)N (Ac-RLLLAR-aldehyde)

pIC50 [17]: 5.00 to 5.60
pIC50 [18]: 6.48
SMILES: CCN1/C(=C/C=C/c2sc3ccccc3[n+]2CC)Sc2ccccc21

pKi [22]: 6.74
pIC50 [23]: 5.57
pIC50 [24]: 6.66
SMILES: CC[C@H](C)[C@H](NC(=O)[C@H](CS)NC(=O)[C@@H](NC(=O)[C@@H]1CCCN1C(=O)[C@@H]1CCCN1C(=O)[C@H](Cc1ccc(O)cc1)NC(=O)[C@H](CO)NC(=O)[C@H](CCCNC(=N)N)NC(=O)[C@H](CO)NC(=O)[C@H](CS)NC(=O)[C@H](Cc1ccc(O)cc1)NC(=O)CN)C(C)C)C(=O)N1CCC[C@H]1C(=O)N[C@@H](CC(=O)O)C(=O)O (H-GYCSRSYPPVCIPD-OH)
